Measurements from US10077446B2, “Glucan-encapsulated siRNA for treating type 2 diabetes mellitus” (The United States of America, as represented by THE …, priority 2013, dated 2018).

Assays:
[1] = test system: Zucker diabetic fatty (ZDF) rats; test: 12-week JD5037 treatment of 6-week-old pre-diabetic ZDF rats; assay type: in vivo, rat; conditions: pre-diabetic 6-week-old ZDF rats, daily JD5037 for 3 months
Description: In the first one, 8-week old diabetic ZDF rats were given 3 mg/kg JD5037 or vehicle for 28 days with lean controls receiving vehicle only. In the second protocol, similar treatment was started in 6-week old pre-diabetic ZDF rats and age-matched lean controls, and treatment continued for 12 weeks until the age of 18 weeks. Body weight and food intake were monitored daily. At the end of treatment in both protocols, rats were sacrificed by decapitation, the brain, liver, kidney, pancreas and combined fat pads were removed, weighed, and snap-frozen in liquid nitrogen or fixed in formalin, and trunk blood was collected for determining endocrine and biochemical parameters. Adiposity index was defined as the combined weight of the epidydimal, retroperitoneal and inguinal fat pads, expressed as % of total body weight. […]
Blood glucose levels were determined using the Elite glucometer (Bayer, Pittsburgh, Pa.). […] Plasma insulin was measured using the Ultra Sensitive rat Insulin ELISA kit (Crystal Chem Inc). Hemoglobin A1c was determined using the Rat Hemoglobin A1c (HbA1c) assay kit (Crystal Chem) and c-peptide was quantified by ELISA (C-peptide (rat) ELISA, ALPCO). Serum leptin and adiponectin were determined by ELISA (B-Bridge International). α-amylase, lipase, and uric acid concentrations were determined using commercially available colorimetric kits (BioAssay Systems). […]

[2] = test system: Zucker diabetic fatty (ZDF) rats; test: Glucose-stimulated insulin secretion in intact ZDF rats and isolated islets; assay type: in vivo, rat
Description: Rats were fasted for 12 h, and tail blood was collected to determine basal insulin and c-peptide levels. Rats were then given glucose (3 g/kg) orally by gavage, and, 5 minutes later, tail blood was again collected for determining insulin and c-peptide levels, with the difference over baseline insulin considered as a measure of glucose-induced insulin release, and the comparison with parallel changes in c-peptide levels used to assess the role of insulin production vs. clearance in the observed change in plasma insulin levels.
After 4 days recovery, pancreata from treated animals were inflated via the common bile duct with a solution of LIBERASE™ TL Research Grade (1.18 U/ml, Roche Diagnostics) and digested for 30 min at 37° C. Islets were purified on a discontinuous Ficoll gradient (GE HEALTHCARE) and hand-picked under a stereomicroscope for immediate assessment of […] function by static incubation. Right after isolation, batches of 4 islets were pre-incubated for 2 h in RPMI 1640 containing NaHCO3 (2 g/l), HEPES (25 mM), 10% (v/v) neonatal calf serum (Invitrogen), pH 7.2, and 0.5 g/L glucose at 37° C. in an incubator containing 5% CO2. This was followed by successive 1 h incubations in the presence of 0.5, 1, 1.5, 2, and 3 g/L glucose. Supernatants were collected in each step for insulin quantification (Crystal Chem Inc). […]

[3] = test system: Zucker diabetic fatty (ZDF) rats; test: Hyperinsulinemic euglycemic clamp in ZDF rats; assay type: in vivo, rat
Description: Clamps and glucose tracer analyses in conscious, cannulated rats were performed as described: right jugular vein of 3 rats per group was catheterized a week prior to the experiment, and clamps were performed by continuous infusion of insulin at 3 mU/kg/min and co-infusion of 3H-D-glucose to maintain euglycemia. The protocol for radioactive clamps to evaluate glucose fluxes was adapted from Buettner, et al. (Buettner, et al. 2005 J Clin Invest 115:1306-1313). 3H-D-glucose (Perkin Elmer) was first infused at 0.8 μCi/min for one minute and then at 0.04 μCi/min for 2 h prior to insulin infusion, and the tritiated glucose infusion was pursued during the rest of the experiment at the same rate. 10 μl of blood were sampled from the tail 15 and 5 min before starting insulin infusion and 30, 20, 10 minutes before the end of the experiment.
Blood samples were centrifuged in order to obtain serum. Serum was snap frozen on dry ice and, once all the samples were available, 5 μl serum was transferred to 25 μl dionized water and then mixed with 25 μl of 0.1N ZnSO4. Samples were precipitated with addition of 25 μl of 0.1N Ba(OH)2. After centrifugation, the supernatant was dried overnight, resuspended in water, and counted in scintillation liquid. Glucose turnover was calculated as the ratio of tritiated glucose infusion rate over the specific activity of blood glucose.

[4] = test system: Zucker diabetic fatty (ZDF) rats; test: 28-day oral JD5037 treatment of 8-week-old diabetic ZDF rats; assay type: in vivo, rat
From the text: Zucker diabetic fatty (ZDF) rats were used to assess the role of endocannabinoids and CB1R in glycemic control and β-cell loss Animal protocols were approved by the Institutional Animal Care and Use Committee of the NIAAA, NIH. Male ZDF rats with their lean controls were obtained from Charles River Laboratories (Wilmington, Mass. 01887, USA). Rats were individually housed and maintained under a 12-h light/dark cycle and fed ad libitum with a standard laboratory diet (STD, NIH-31 rodent diet).
ZDF rats received JD5037 or vehicle (4% DMSO+1% Tween 80 in PBS) by oral gavage according to 2 different protocols. JD5037 was synthesized and its pharmacological properties analyzed as described earlier (Tam, et al. 2012 Cell Metab 16, 167-179). […]
In the first one, 8-week old diabetic ZDF rats were given 3 mg/kg JD5037 or vehicle for 28 days with lean controls receiving vehicle only. In the second protocol, similar treatment was started in 6-week old pre-diabetic ZDF rats and age-matched lean controls, and treatment continued for 12 weeks until the age of 18 weeks. Body weight and food intake were monitored daily. At the end of treatment in both protocols, rats were sacrificed by decapitation, the brain, liver, kidney, pancreas and combined fat pads were removed, weighed, and snap-frozen in liquid nitrogen or fixed in formalin, and trunk blood was collected for determining endocrine and biochemical parameters. Adiposity index was defined as the combined weight of the epidydimal, retroperitoneal and inguinal fat pads, expressed as % of total body weight. In the second protocol, blood samples were taken weekly to assess the progression of T2DM by measuring blood glucose and monthly to measure insulin and c-peptide levels.
Blood glucose levels were determined using the Elite glucometer (Bayer, Pittsburgh, Pa.). […] Plasma insulin was measured using the Ultra Sensitive rat Insulin ELISA kit (Crystal Chem Inc). Hemoglobin A1c was determined using the Rat Hemoglobin A1c (HbA1c) assay kit (Crystal Chem) and c-peptide was quantified by ELISA (C-peptide (rat) ELISA, ALPCO). Serum leptin and adiponectin were determined by ELISA (B-Bridge International). α-amylase, lipase, and uric acid concentrations were determined using commercially available colorimetric kits (BioAssay Systems). TNF-α and IL-1β were determined using TNF-α ELISA Kit (for Lysates) (RayBiotech, Inc.) and IL1β Rat ELISA Kit (Abeam), respectively.
To determine intra-hepatic triglyceride and cholesterol content, liver tissue was extracted as described previously (Folch, et al. 1957 J Biol Chem 226:497-509). After extraction, 0.5 ml of organic phase was transferred to a clean tube containing 1 ml of 2% Triton X-100 in chloroform and dried using nitrogen. The residue was re-solubilized in 1 ml of distilled water and used for triglycerides content using EnzyChrom™ Triglyceride Assay Kit.
Pancreas was fixed in 10% neutral buffered formalin (NBF), embedded in paraffin and sectioned ([…]) onto glass slides. […] For detection, secondary Ab coupled to FITC or PE were used (Table 2). Images were viewed with a Fluoview FV10i confocal microscope system (Olympus). […]

MIN6 insulinoma cells = test: Cytokine, apoptotic gene, insulin and CB1R expression in MIN6 insulinoma cells; assay type: cell-based, mouse
Description: (§1) Mouse RAW264.7 macrophages (ATCC, Manassas, Va.) were cultured as previously described (Liu, et al. 2003 J Biol Chem 278:45034-45039) and were either treated during 4 hours with various concentrations of AEA (0.1, 0.5, 1, and 10 μM) and/or JD5037 (100 nM) or treated with 30 ng/mL of IL-1β (Abcam Ab9723). Mouse MIN6 insulinoma cells were a gift from NIDDK and were cultured in low glucose DMEM (Gibco 11885) supplemented with 15% FBS (BenchMark 100-006) and 1% antibiotic antimycotic cocktail (Invitrogen 15240-096). Cells were either treated during 4 hours with various concentrations of AEA (0.5, 1 and 5 μM) or treated with 30 ng/mL of IL-1β (Abcam Ab9723).
(§2) For both cell types, medium was collected and immediately frozen in liquid nitrogen. Cells were washed twice in ice-cold sterile PBS before harvesting. EC (endocannabinoid) levels were determined as previously 3, secretion of IL-1β, IL-18, TNF-α and MCP-1 in the medium were determined using ELISA kits (Biosensis BEK-2151-2P, Uscn Life Science & Technology Company E90064Mu, Biosensis BEK-2102-2P, Uscn Life Science & Technology Company E90087Mu, respectively).
MIN6 cells were treated either with vehicle, IL-1β (30 ng/mL), IL1R antagonist (10 ng/mL) for 3 hours or pre-treated 1 h with IL1R antagonist (10 ng/mL) followed by 3 h incubation with IL-1β (30 ng/mL). […] Blot quantification was performed using the gel analysis options of image J software.
(§3) Total mRNA from the liver, pancreas and kidney were extracted with Trizol (Invitrogen), while total mRNA from cells was extracted using RNEASY™ Mini Kit (Qiagen). All extractions were followed by DNase I treatment (Invitrogen). Total mRNA was reverse-transcribed using the ISCRIPT™ cDNA kit (Bio-Rad). Real-time PCR was performed as described previously (Jourdan, et al. 2010 Diabetes 59:926-934) in a 96-well plate using a STEPONEPLUS™ real time PCR system (Applied Biosystems). QUANTITECT™ Primer Assays were used to detect gene expression (Table 3, which lists the primers used for rat and mice (tissue)). Expression of the gene of interest is reported as a relative value comparing it to the geometric average of 18S, L19, L38 and TATA box binding protein expression.

RAW264.7 macrophages = test: Proinflammatory signaling in cultured RAW264.7 macrophages; assay type: cell-based, mouse; conditions: 4 h
Description: as §1, §2, §3

[5] = ZDF rats, 3 mg/kg JD5037 oral, 28 days
[6] = plasma, ZDF rats, 3 mg/kg/day JD5037 for 28 days, mean ± SEM

Compound: CC(C)[C@H](N/C(=N\S(=O)(=O)c1ccc(Cl)cc1)N1C[C@H](c2ccccc2)C(c2ccc(Cl)cc2)=N1)C(N)=O [JD5037, (S)-2-((S,E)-3-(4-chlorophenyl)-N′-((4-chlorophenyl)sulfonyl)-4-phenyl-4,5-dihydro-1H-pyrazole-1-carboximidamido)-3-methylbutanamide]
- hyperglycemia [1]: attenuated and its development delayed
- rapid decline in plasma insulin and c-peptide [1]: largely prevented
- elevated basal insulin levels ([2]; ZDF rats, JD5037-treated): did not affect
- GSIS (glucose-stimulated insulin secretion) ([2]; both in vivo and in vitro (isolated islets)): restored
- insulin resistance [3]: not significantly affected
- peripheral glucose uptake ([3]; FIG. 1d): slightly improves
- elevated Nlrp3, IL-1β, IL-18, p65 NFκB, caspase-1 activity, TXNIP and IL-1 receptor mRNA ([4]; ZDF islets/pancreas, JD5037 28 days): completely reversed
- ASC mRNA ([4]; ZDF pancreas, JD5037 4 weeks): normalized
- small increase in AIM-2 expression ([4]; ZDF pancreas, JD5037 4 weeks): unaffected
- expression of the IL-1R antagonist ([4]; ZDF pancreas, JD5037 28 days): increased
- body weight or adiposity [4, 5]: did not affect
- food intake [4, 5]: small reduction
- hyperglycemia of ZDF rats [4, 5]: completely reversed
- hyperinsulinemia (along with increased C-peptide levels) [4, 5]: paradoxically enhanced
- steatosis, associated hepatocellular damage, increased lipogenic gene expression [4, 5]: greatly attenuated
- fasting blood glucose and HbA1c ([4]; ZDF rats, 3 mg/kg JD5037 oral, 28 days, FIG. 1c): normalizes
- Tunel-positive islet cells ([4]; ZDF rats, JD5037 4 weeks): reduced number
- decreased plasma adiponectin and pancreatic expression of adipoR1 and adipoR2 ([4]; ZDF rats, JD5037 4 weeks): reversed
- insulin mRNA and protein in ZDF islets ([4]; ZDF rats, JD5037 4 weeks): normalized
- reduced pancreatic expression of glucokinase (Glck) and Glut2 ([4]; ZDF rats, JD5037 4 weeks): normalized
- increased pancreatic anandamide levels ([4]; ZDF rats, JD5037 4 weeks, LC/MS/MS): normalized
- macrophage infiltration of islets ([4]; ZDF rats, JD5037 28 days): reduced
- rise in expression of CB1R in islets ([4]; ZDF vs. lean rats, JD5037 4 weeks): reversed
- Adiponectin [4, 6]: 5.70 ± 0.07 µg/mL
- Cholesterol [4, 6]: 104.8 ± 3.85 mg/dL
- IL-1β [4, 6]: 7.63 ± 0.78 ng/mL
- Leptin [4, 6]: 9.48 ± 0.31 ng/mL
- TG [4, 6]: 817.6 ± 31.36 mg/dL
- TNF-α [4, 6]: 0.83 ± 0.07 pg/mL
- Uric acid [4, 6]: 2.57 ± 0.04 µg/mL

Compound: CCCCC/C=C\C/C=C\C/C=C\C/C=C\CCCC(=O)NCCO [anandamide]
- maximally effective concentration for reducing insulin gene expression (MIN6 insulinoma cells): 0.5 µM
- pro- and anti-apoptotic gene expression (MIN6 insulinoma cells; 0.5 μM anandamide): little or no effect
- levels of IL-1β, TNF-α, and MCP-1 in the medium (MIN6 insulinoma cells; 4 h): did not affect
- concentration at which peak changes in cytokine secretion were observed (RAW264.7 macrophages; RAW264.7 cells): 0.5 µM
- secretion of IL-1β, TNF-α, and MCP-1 (RAW264.7 macrophages; RAW264.7 cells): markedly increased
- CB2R expression (RAW264.7 macrophages; RAW264.7 macrophages): without affecting
- expression of Nlrp3 and caspase-1 (RAW264.7 macrophages; RAW264.7 macrophages): robustly increased

Compound: IL-1R antagonist: IL-1 receptor antagonist used at 10 ng/mL in MIN6 cells
- IL-1β-induced reduction of CB1R mRNA and protein (MIN6 insulinoma cells; IL-1R antagonist 10 ng/mL): blocked

Compound: IL-1β: interleukin-1β (Abcam Ab9723)
- maximally effective concentration for reducing insulin gene expression (MIN6 insulinoma cells): 30 ng/mL
- CB1R mRNA and protein (MIN6 insulinoma cells; 30 ng/mL IL-1β): drastically reduced
- anti-apoptotic genes Bcl-2 and Bcl-xl (MIN6 insulinoma cells; 30 ng/mL IL-1β): drastically suppressed
- pro-apoptotic genes Bak and Bax (MIN6 insulinoma cells; 30 ng/mL IL-1β): markedly induced
